Measured values taken from US4841054A, “2,6-dimethyl-3,5-dimethoxycarbonyl-4-(5'-tri methylsilyl-2'-furyl)-1,4-dihydropyridine” (priority 1988, dated 1989).
“Also recorded” adds a separate entry of the source.

What was measured:
[1] = system: spontaneously hypertensive rats; assay: Effect on arterial pressure in spontaneously hypertensive rats, single administration; assay type: in vivo; conditions: for hypotensive effect by the 6th hour, comparison in words: compound of the present invention vs Nifedipine
[2] = in vivo; conditions: mouse, in vivo, ip
Method: (§1) The mean lethal dose (LD50) was determined by the Litchfield and Wilcoxon method.

[3] = system: white nondescript mice; assay: in vivo; conditions: for toxicity in words: conclusion from Table 2
Method: as §1

[4] = literature, cited from earlier work
[5] = system: spontaneously hypertensive rats; assay: Effect on heart rate in spontaneously hypertensive rats; assay type: in vivo; conditions: for effect on heart rate: 10 and 20 mg/kg, peroral, SHR
Method: (§2) In experiments on spontaneously hypertensive rats the compound according to the present invention upon a single administration (10 mg/kg in stomach) caused reduction of systolic arterial pressure. The maximum hypotensive effect (by 21 %) was observed by the 6-th hour after administration of the compound, after 24 hours the pressure was reduced by 17 % as compared to the initial value. A […] administration of the compound for 5 days in the dose of 10 mg/kg into the stomach caused the maximum reduction of the pressure (by 22 %) on the 6-th day, i.e., one day after discontinuation of administration of the compound. A reduced pressure was observed on the 3-rd day (by 10 %) after discontinuation of the administration.

[6] = system: spontaneously hypertensive rats; assay: Effect on systolic arterial pressure in spontaneously hypertensive rats, administration for 5 days; assay type: in vivo; conditions: 10 mg/kg into the stomach for 5 days
Method: as §2

[7] = Solubility; assay type: physicochemical
[8] = Stability by UV spectrum (solid in the light; alcoholic solution)
[9] = 10 mg/kg, single administration in stomach

| Structure (SMILES) | Hypotensive effect, %, after 48 hrs ([1]; 10 mg/kg) | Hypotensive effect, %, after 1 hr [1, 9] | Hypotensive effect, %, after 6 hrs [1, 9] | Hypotensive effect, %, after 24 hrs [1, 9] | LD50 at 240 h [2] | toxicity in words [3] | hypotensive effect by the 6th hour, comparison in words [1] | hypotensive effect / systolic pressure 24 hours after administration, in words [1] | effect on heart rate [5] | also measured |
| --- | --- | --- | --- | --- | --- | --- | --- | --- | --- | --- |
| COC(=O)C1=C(C)NC(C)=C(C(=O)OC)C1c1ccco1 [Analog, 2,6-dimethyl-3,5-dimethoxycarbonyl-4-(2'-furyl)-1,4-dihydropyridine] | 0% | 12% | 7% | 0% | 2900 mg/kg | low toxicity |  |  |  | hypotensive properties, comparison in words ([1]; vs the compound of the present invention): subtantially lower than those of the compound of the present invention; hypotensive activity compared with Nifedipine ([4]; vs Nifedipine): considerably lower than that of Nifedipine |
| COC(=O)C1=C(C)NC(C)=C(C(=O)OC)C1c1ccccc1[N+](=O)[O-] [Nifedipine, 2,6-dimethyl-3,5-dimethoxycarbonyl-4-(O-nitrophenyl)-1,4-dihydropyridine] | 0% | 34% | 23% | 0% |  |  | same hypotensive effect | systolic pressure returned to the initial level | tachycardia | hypotensive effect by the 1st hour, comparison in words ([1]; 1 hour after administration, vs the compound of the present invention): superior to the compound of the present invention; hypotensive and coronarodilating effects [4]: hypotensive and coronarodilating effects |
| COC(=O)C1=C(C)NC(C)=C(C(=O)OC)C1c1ccc([Si](C)(C)C)o1 [Of this invention, 2,6-dimethyl-3,5-dimethoxycarbonyl-4-(5'-trimethylsilyl-2'-furyl)-1,4-dihydropyridine] |  | 13% | 21% | 17% | > 1000 mg/kg | low toxicity as compared to Nifedipine | same hypotensive effect | still produced the hypotensive effect | either lowers the heart rate or does not change it | Hypotensive effect, %, after 6 hrs ([1]; 20 mg/kg): 30%; Hypotensive effect, %, after 24 hrs ([1]; 20 mg/kg): 39%; Hypotensive effect, %, after 48 hrs ([1]; 20 mg/kg): 28%; duration of hypotensive effect, in words ([1]; vs Nifedipine and/or analog, listed as compound according to the present invention): superior over Nifedipine as regards the duration of its effect; also recorded: more lasting hypotensive effect than the analog and Nifedipine; reduced pressure on the 3rd day after discontinuation ([6]; 3rd day after discontinuation): 10%; maximum reduction of the pressure ([6]; on the 6th day (one day after discontinuation)): 22%; effect on heart rate, comparison in words ([5]; vs Nifedipine): less pronounced effect on the heart rate; death of the mice ([3]; doses of up to 1,000 mg/kg, intraperitoneal): did not cause death of the mice; solubility in methanol, ethanol, chloroform, acetone ([7]; methanol, ethanol, chloroform, acetone): well soluble; solubility in water ([7]; water): substantially insoluble; period during which UV spectrum remained unchanged in alcoholic solution ([8]; alcoholic solution, 5×10^-5 mol): 6 months; stability in the crystalline state and as solutions ([8]; crystalline state and solutions): stable; UV spectrum upon storage of the solid in the light ([8]; solid, in the light, within a year's period): does not change its UV spectrum within a year's period |
